Results taken from the NIST ThermoML archive (doi:10.1016/j.jct.2008.09.018).

Test: xn = mol fraction of the nth substance listed
Conditions: 101 kPa, Liquid; for speed of sound: Pulse-echo method; for viscosity: Capillary tube (Ostwald / Ubbelohde) method; for mass density: Vibrating tube method

CCCCCCCCCO [nonan-1-ol] + OCCO
Conditions	mass density [kg/m3]	speed of sound [m/s]	viscosity [mPa·s]
293.15 K, x2 = 0	–	1381.6	–
293.15 K, x2 = 0.1002	–	1383.9	–
293.15 K, x2 = 0.1979	–	1387.2	–
293.15 K, x2 = 0.2964	–	1391.9	–
293.15 K, x2 = 0.3641	–	1396.2	–
293.15 K, x2 = 0.4533	–	1403.7	–
293.15 K, x2 = 0.5432	–	1414.2	–
293.15 K, x2 = 0.6441	–	1431.5	–
293.15 K, x2 = 0.7517	–	1460.2	–
293.15 K, x2 = 0.9308	–	1571.1	–
298.15 K, x2 = 0	824.48	1364.4	9.494
298.15 K, x2 = 0.1002	833.41	1366.8	9.581
298.15 K, x2 = 0.1979	843.96	1370.3	10.01
298.15 K, x2 = 0.2964	856.32	1375.2	10.67
298.15 K, x2 = 0.3641	866.44	1379.8	11.26
298.15 K, x2 = 0.4533	881.71	1387.6	12.22
298.15 K, x2 = 0.5432	900.44	1398.4	13.41
298.15 K, x2 = 0.6441	926.38	1416.2	15.09
298.15 K, x2 = 0.701	944.22	–	–
298.15 K, x2 = 0.7517	963.14	1445.4	17.32
298.15 K, x2 = 0.9308	1055.33	1558.5	19.28
303.15 K, x2 = 0	821.05	1347.4	7.994
303.15 K, x2 = 0.1002	830.02	1350	8.014
303.15 K, x2 = 0.1979	840.61	1353.6	8.359
303.15 K, x2 = 0.2964	852.92	1358.8	8.897
303.15 K, x2 = 0.3641	863	1363.5	9.37
303.15 K, x2 = 0.4533	878.3	1371.5	10.14
303.15 K, x2 = 0.5432	896.94	1382.7	11.09
303.15 K, x2 = 0.6441	922.82	1400.8	12.4
303.15 K, x2 = 0.701	940.61	–	–
303.15 K, x2 = 0.7517	959.57	1430.7	14.12
303.15 K, x2 = 0.9308	1051.63	1545.7	15.47
308.15 K, x2 = 0	817.57	1330.5	6.713
308.15 K, x2 = 0.1002	826.58	1333.2	6.801
308.15 K, x2 = 0.1979	837.18	1337.1	7.044
308.15 K, x2 = 0.2964	849.41	1342.4	7.487
308.15 K, x2 = 0.3641	859.49	1347.3	7.872
308.15 K, x2 = 0.4533	874.74	1355.6	8.493
308.15 K, x2 = 0.5432	893.37	1367.1	9.257
308.15 K, x2 = 0.6441	919.23	1385.6	10.31
308.15 K, x2 = 0.701	937.01	–	–
308.15 K, x2 = 0.7517	956	1416.1	11.66
308.15 K, x2 = 0.9308	1048.12	1532.9	12.67
313.15 K, x2 = 0	814.19	1313.6	5.657
313.15 K, x2 = 0.1002	823.15	1316.5	5.782
313.15 K, x2 = 0.1979	833.73	1320.6	5.984
313.15 K, x2 = 0.2964	845.93	1326.3	6.352
313.15 K, x2 = 0.3641	855.98	1331.3	6.667
313.15 K, x2 = 0.4533	871.22	1339.8	7.176
313.15 K, x2 = 0.5432	889.84	1351.6	7.796
313.15 K, x2 = 0.6441	915.68	1370.4	8.65
313.15 K, x2 = 0.701	933.39	–	–
313.15 K, x2 = 0.7517	952.37	1401.6	9.722
313.15 K, x2 = 0.9308	1044.52	1520.3	10.47
